The assay concerns the target Substance-P receptor (Homo sapiens, UniProt P25103). Description: Affinity for human Tachykinin receptor 1 expressed in CHO cells. The class given is cell-based.

Sequence of Substance-P receptor (P25103 whole entry): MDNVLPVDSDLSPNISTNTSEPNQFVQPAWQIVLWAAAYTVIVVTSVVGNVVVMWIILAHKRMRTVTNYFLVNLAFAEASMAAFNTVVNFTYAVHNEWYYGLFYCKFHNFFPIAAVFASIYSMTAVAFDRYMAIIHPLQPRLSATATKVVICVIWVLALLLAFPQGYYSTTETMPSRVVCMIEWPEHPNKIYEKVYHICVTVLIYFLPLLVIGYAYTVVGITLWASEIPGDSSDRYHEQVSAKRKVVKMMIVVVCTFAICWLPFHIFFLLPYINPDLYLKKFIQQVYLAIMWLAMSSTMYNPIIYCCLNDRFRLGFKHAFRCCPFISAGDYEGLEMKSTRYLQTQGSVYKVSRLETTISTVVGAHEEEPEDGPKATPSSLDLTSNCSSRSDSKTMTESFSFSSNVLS

As for `CN1C(=O)N(Cc2cc(C(F)(F)F)cc(C(F)(F)F)c2)C2(CCN(C(=O)CN3CCC(Cc4ccccc4)CC3)CC2)C1=O`, the inhibition constant Ki (usually a dissociation constant, usually derived from enzyme kinetics or from competition with a known ligand) is 3720 nM.
As for `O=C(c1cccc2ccccc12)N1CCC2(CC1)NC(=O)N(c1cc(C(F)(F)F)cc(C(F)(F)F)c1)C2=O`, the figure is 339 nM.
As for `CSc1ccc(N2C(=O)NC3(CCN(C(=O)c4cc(C(F)(F)F)cc(C(F)(F)F)c4)CC3)C2=O)cc1`, the figure is 132 nM; as for `N#Cc1cccc(CN2CCC3(CC2)NC(=O)N(Cc2cc(C(F)(F)F)cc(C(F)(F)F)c2)C3=O)c1`, 107 nM; as for `O=C(c1cc(C(F)(F)F)cc(C(F)(F)F)c1)N1CCC2(CC1)NC(=O)N(CCc1c[nH]c3ccccc13)C2=O`, 575 nM.
On to `CN1C(=O)N(Cc2cc(C(F)(F)F)cc(C(F)(F)F)c2)C2(CCN(C(=O)c3cccc4ccccc34)CC2)C1=O`, for which the affinity corresponds to a Ki of 457 nM.
The value for `O=C(c1cc(C(F)(F)F)cc(C(F)(F)F)c1)N1CCC2(CC1)NC(=O)N(Cc1cccc(-c3ccccc3)c1)C2=O` was 138 nM; that for `O=C(c1cc(C(F)(F)F)cc(C(F)(F)F)c1)N1CCC2(CC1)NC(=O)N(Cc1ccc3c(c1)OCO3)C2=O` was 245 nM; that for `Cc1cccc(NC(=O)N2CCC3(CC2)NC(=O)N(Cc2cc(C(F)(F)F)cc(C(F)(F)F)c2)C3=O)c1` was 45.7 nM.
The value for `O=C1NC2(CCN(S(=O)(=O)CCc3cccc4ccccc34)CC2)C(=O)N1Cc1cc(C(F)(F)F)cc(C(F)(F)F)c1` was 74.1 nM.
The value for `CN1C(=O)N(Cc2cc(C(F)(F)F)cc(C(F)(F)F)c2)C2(CCN(C(=O)c3c(Cl)cccc3Cl)CC2)C1=O` was 646 nM.
`Cc1cc(C)c(C(=O)N2CCC3(CC2)NC(=O)N(c2cc(C(F)(F)F)cc(C(F)(F)F)c2)C3=O)c(C)c1` had an inhibitory constant (Ki) of 324 nM.
